Data from patent publication US20250345295A1, “LMK235 COMPOSITIONS AND METHODS” (UNM Rainforest Innovations, priority 2024, published 2025).

System: differentially expressed genes in TG
Assay: RNAseq gene expression profiling of TG
Assay type: in vivo, mouse
Description: Gene expression profiling was performed on TG from mice with/without nerve injury during the acute phase (three weeks post injury) in TIC mice and after transition to chronic pain (10 weeks post injury) in FRICT-ION mice by Quick Biology Inc. (Monrovia, CA).
Total RNA from ipsilateral TG was isolated using the Rneasy Mini Kit (Qiagen, Valencia, CA). Gene expression profiling and analysis with RNA was done by Quick Biology Inc. (Monrovia, CA). RNAseq library preparation was performed by Quick Biology Inc. (Monrovia, CA), sequencing was performed using an Illumina HiSeq 4000 at 40 million reads per sample. The reads were first mapped to the latest UCSC transcript set using Bowtie2 version 2.1.0 and the gene expression level was estimated using RSEM v1.2.15. Differentially expressed genes were identified using the edgeR program. Genes showing altered expression with p<0.05 were considered differentially expressed.

[1] = LMK235-Treated FRICT-ION Vs Naive
[2] = LMK235-Treated FRICT-ION Vs Untreated FRICT-ION
[3] = TG RNAseq, FRICT-ION mice treated with LMK235 vs naive, week 10
[4] = TG RNAseq, LMK235-treated vs untreated FRICT-ION mice

Cc1cc(C)cc(C(=O)NOCCCCCC(=O)NO)c1 [LMK235, N-[[6-(Hydroxyamino)-6-oxohexyl]oxy]-3,5-dimethyl-benzamide]
Fold-change Arfgef2 [1]: 1.02
Fold-change Astn2 [1]: 1.04
Fold-change Bmp2 [1]: 1.11
Fold-change Bmp3 [1]: −1.23
Fold-change Bmp4 [1]: 1.18
Fold-change Bmp5 [1]: 1.85
Fold-change Cacna1a [1]: −1.06
Fold-change Cacna1g [1]: −1.00
Fold-change Cacna1i [1]: −1.14
Fold-change Cacna1h [1]: −1.11
Fold-change Cacna1d [1]: −1.03
Fold-change Cacnb1 [1]: −1.02
Fold-change Clcn1 [1]: −1.33
Fold-change Clcn2 [1]: −1.11
Fold-change Clic5 [1]: −1.08
Fold-change Eef2 [1]: −1.05
Fold-change Gabra5 [1]: 1.02
Fold-change Gabra6 [1]: 1.18
Fold-change Gabre [1]: −1.22
Fold-change Gabrg1 [1]: 1.26
Fold-change Jakmip1 [1]: 1.02
Fold-change Kcna5 [1]: −1.06
Fold-change Kcnc3 [1]: −1.05
Fold-change Kcnd2 [1]: 1.09
Fold-change Kcnh2 [1]: −1.06
Fold-change Kcnh7 [1]: 1.03
Fold-change Kcnj6 [1]: −1.10
Fold-change Kcnk1 [1]: −1.02
Fold-change Kcns2 [1]: 1.12
Fold-change Kcnv1 [1]: 1.26
Fold-change Kif1b [1]: 1.01
Fold-change Maoa [1]: 1.08
Fold-change Mapk3 [1]: −1.02
Fold-change Mpz [1]: 1.07
Fold-change Nacc2 [1]: −1.05
Fold-change Nav3 [1]: 1.12
Fold-change Ncald [1]: 1.05
Fold-change Ndnf [1]: 1.31
Fold-change Net1 [1]: −1.11
Fold-change Neurod4 [1]: −1.13
Fold-change Nf2 [1]: −1.02
Fold-change Nfasc [1]: −1.09
Fold-change Ngef [1]: −1.06
Fold-change Nkain2 [1]: 1.05
Fold-change Nova1 [1]: 1.04
Fold-change Nras [1]: −1.00
Fold-change Nrep [1]: 1.04
Fold-change Nrg2 [1]: 1.04
Fold-change Nrg3 [1]: 1.09
Fold-change Nrp2 [1]: 1.07
Fold-change Ntrk1 [1]: −1.09
Fold-change Nts [1]: 1.18
Fold-change Plcl1 [1]: 1.12
Fold-change Scn2a1 [1]: 1.10
Fold-change Scn3a [1]: 1.11
Fold-change Scn5a [1]: 1.23
Fold-change Scn7a [1]: 1.07
Fold-change Scn8a [1]: −1.07
Fold-change Scn9a [1]: 1.01
Fold-change Slc6a4 [1]: −1.11
Fold-change Trak1 [1]: −1.05
Fold-change Trpc6 [1]: −1.08
Fold-change Trpm2 [1]: −1.10
Fold-change Trpm3 [1]: 1.12
Fold-change Trpm4 [1]: −1.14
Fold-change Trpm7 [1]: 1.10
Fold-change Trps1 [1]: 1.14
Fold-change Trpv4 [1]: 2.12
Fold-change Trpv6 [1]: −1.07
Fold-change Unc80 [1]: 1.07
Fold-change Arfgef2 [2]: 1.01
Fold-change Astn2 [2]: 1.0
Fold-change Bmp2 [2]: −1.02
Fold-change Bmp3 [2]: −2.70
Fold-change Bmp4 [2]: 1.05
Fold-change Bmp5 [2]: −1.01
Fold-change Cacna1a [2]: −1.16
Fold-change Cacna1g [2]: −1.43
Fold-change Cacna1i [2]: −1.39
Fold-change Cacna1h [2]: −1.49
Fold-change Cacna1d [2]: −1.04
Fold-change Cacnb1 [2]: −1.13
Fold-change Clcn1 [2]: −1.05
Fold-change Clcn2 [2]: 1.01
Fold-change Clic5 [2]: −1.05
Fold-change Eef2 [2]: 1.01
Fold-change Gabra5 [2]: −1.23
Fold-change Gabra6 [2]: 2.08
Fold-change Gabre [2]: 1.10
Fold-change Gabrg1 [2]: 1.14
Fold-change Jakmip1 [2]: −1.10
Fold-change Kcna5 [2]: −1.41
Fold-change Kcnc3 [2]: −1.04
Fold-change Kcnd2 [2]: −1.00
Fold-change Kcnh2 [2]: −1.04
Fold-change Kcnh7 [2]: −1.19
Fold-change Kcnj6 [2]: −1.38
Fold-change Kcnk1 [2]: 1.05
Fold-change Kcns2 [2]: −1.25
Fold-change Kcnv1 [2]: 1.09
Fold-change Kif1b [2]: 1.01
Fold-change Maoa [2]: 1.14
Fold-change Mapk3 [2]: −1.00
Fold-change Mpz [2]: −1.05
Fold-change Nacc2 [2]: −1.00
Fold-change Nav3 [2]: −1.19
Fold-change Ncald [2]: 1.03
Fold-change Ndnf [2]: 1.06
Fold-change Net1 [2]: 1.12
Fold-change Neurod4 [2]: 1.57
Fold-change Nf2 [2]: 1.04
Fold-change Nfasc [2]: −1.02
Fold-change Ngef [2]: −1.34
Fold-change Nkain2 [2]: −1.14
Fold-change Nova1 [2]: 1.04
Fold-change Nras [2]: −1.03
Fold-change Nrep [2]: 1.01
Fold-change Nrg2 [2]: 1.10
Fold-change Nrg3 [2]: −1.00
Fold-change Nrp2 [2]: 1.07
Fold-change Ntrk1 [2]: 1.80
Fold-change Nts [2]: −1.74
Fold-change Plcl1 [2]: 1.13
Fold-change Scn2a1 [2]: −1.04
Fold-change Scn3a [2]: −1.01
Fold-change Scn5a [2]: 1.01
Fold-change Scn7a [2]: −1.07
Fold-change Scn8a [2]: 1.05
Fold-change Scn9a [2]: 1.29
Fold-change Slc6a4 [2]: 4.38
Fold-change Trak1 [2]: −1.01
Fold-change Trpc6 [2]: 1.08
Fold-change Trpm2 [2]: −1.02
Fold-change Trpm3 [2]: 1.19
Fold-change Trpm4 [2]: 1.05
Fold-change Trpm7 [2]: 1.06
Fold-change Trps1 [2]: 1.03
Fold-change Trpv4 [2]: 1.21
Fold-change Trpv6 [2]: −1.19
Fold-change Unc80 [2]: 1.10
Fold change S100a9 (TG RNAseq, FRICT-ION + LMK235 VS FRICT-ION): −2.74
C1q14 RNA level vs naïve [3]: not significantly different from naïve mice
Crhbp RNA level vs naïve [3]: not significantly different form naïve controls
P2rx4 RNA level vs naïve [3]: not different from naïves
Slfn4 RNA level vs naïve [3]: not different from naïve controls
P2rx7 foldchanges (TG RNAseq, LMK235-treated and untreated FRICT-ION mice): minimal and insignificant foldchanges
Bmp2 downregulated, fold [4]: 1.02 fold
Bmp3 downregulated, fold [4]: 2.70 fold
Bmp4 expression change [4]: not affected
Bmp5 downregulated, fold [4]: 1.01 fold
Cacna1a downregulated, fold [4]: 1.16 fold
Cacna1 downregulated, fold [4]: 1.39 fold
Cacna1g downregulated, fold [4]: 1.43 fold
Cacna1h downregulated, fold [4]: 1.49 fold
Cacna1d downregulated, fold [4]: 1.04 fold
CacnbI downregulated, fold [4]: 1.13 fold
Clcn2 upregulated, fold [4]: 1.01 fold
Kcna5 downregulated, fold [4]: 1.41 fold
Kcnd2 downregulated, fold [4]: 1.00 fold
Kcne2 reduced, fold (insignificant) [4]: 1.56 fold
Kcnh7 downregulated, fold [4]: 1.19 fold
Kcnj6 downregulated, fold [4]: 1.38 fold
Kcnk1 upregulated, fold [4]: 1.05 fold
Kcns2 downregulated, fold [4]: 1.25 fold
Maoa upregulated, fold [4]: 1.14 fold
Mpz downregulated, fold [4]: 1.05 fold
